Test results from patent US20240109900A1, “AZABICYCLIC SHP2 INHIBITORS” (IRBM S.P.A., priority 2021, published 2024).
pIC50: −log10 of the molar value. Where two headings read alike, the source gives them in different places.

Assays:
[1] = system: ERK phosphorylation in KYSE-520 cells; assay: Phospho-ERK cellular assay; type: cell-based; conditions: read-out: PERK IC50
Summary of the method: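 TR-FRET read-out of ERK1/2 Thr202/Tyr204 phosphorylation was taken after overnight antibody incubation at room temperature. Before that, KYSE-520 cells were treated 2 h at 37 °C with compound dilutions and lysed 30 min. Percent inhibition relative to vehicle and cell-free wells was fitted four-parametrically to give IC50.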

[2] = target: SHP-2 enzyme (Met1-Leu525) (Homo sapiens (Human), UniProt Q06124); assay: SHP2 inhibition enzymatic assay; type: biochemical; conditions: 75 μM DiFMUP substrate
Sequence of SHP-2 enzyme (Met1-Leu525) (Q06124 1-525): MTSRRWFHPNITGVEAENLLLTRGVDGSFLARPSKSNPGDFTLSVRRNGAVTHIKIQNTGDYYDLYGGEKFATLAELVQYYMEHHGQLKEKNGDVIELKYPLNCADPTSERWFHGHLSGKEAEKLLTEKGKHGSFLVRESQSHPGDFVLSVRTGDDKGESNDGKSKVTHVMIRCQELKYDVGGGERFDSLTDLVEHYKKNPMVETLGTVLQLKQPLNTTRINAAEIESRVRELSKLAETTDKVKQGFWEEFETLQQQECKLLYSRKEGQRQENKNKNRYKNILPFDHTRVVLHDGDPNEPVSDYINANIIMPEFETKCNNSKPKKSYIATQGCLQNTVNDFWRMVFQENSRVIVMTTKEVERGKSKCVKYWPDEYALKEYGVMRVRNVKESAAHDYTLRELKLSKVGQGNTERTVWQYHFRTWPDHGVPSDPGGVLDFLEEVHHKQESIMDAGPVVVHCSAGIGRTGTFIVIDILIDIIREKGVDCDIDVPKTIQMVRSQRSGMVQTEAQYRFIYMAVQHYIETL
Summary of the method: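 Compounds were preincubated 30 min with 0.5 nM SHP-2 (Met1-Leu525) plus 500 nM IRS1 activating peptide (pH 7.2 HEPES, 5 mM DTT), then 75 μM DiFMUP substrate reacted 30 min at room temperature. After bpV quench, DiFMUP fluorescence gave % inhibition; four-parameter logistic fit yielded IC50.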

[3] = Homo sapiens, KYSE-520, 2 h, KYSE-520 cells, 2 h at 37° C., phospho-ERK1/2 (Thr202/Tyr204) TR-FRET
[4] = 0.5 nM SHP-2 activated by 500 nM IRS1 peptide, read-out: SHP2wt-IC50
[5] = KYSE-520 cells, 2 h at 37° C., phospho-ERK1/2 (Thr202/Tyr204) TR-FRET
[6] = SHP2wt-IC50, 0.5 nM SHP-2 activated by 500 nM IRS1 peptide

SMILES	pIC50 [1, 3]	pIC50 [2, 4]	pIC50 [1, 5]	pIC50 ([1]; Homo sapiens, KYSE-520, 2 h)	pIC50 [2, 6]
NC[C@]1(c2cc(F)ccc2F)[C@@H]2CCN(c3cnc(Sc4ccnc(C5CC5)c4Cl)c(N)n3)C[C@@H]21 [Example 430, 6-((1S,6R,7R)-7-(aminomethyl)-7-(2,5-difluorophenyl)-3-azabicyclo[4.1.0]heptan-3-yl)-3-((3-chloro-2-cyclopropylpyridin-4-yl)thio)pyrazin-2-amine]	> 6.00	> 6.30	–	–	–
CN(C)C(=O)Cn1ncc2c(Cl)c(-c3n[nH]c4nc(N5CC[C@@H]6[C@H](C5)[C@@]6(CN)c5ccccc5F)cnc34)ccc21 [Example 432]	–	> 6.30	> 6.00	–	–
Cc1csc([C@@]2(CN)[C@@H]3CN(c4cnc(Sc5ccnc(N)c5Cl)c(N)n4)C[C@@H]32)n1 [Example 434, 3-((2-amino-3-chloropyridin-4-yl)thio)-6-((1R,5S,6r)-6-(aminomethyl)-6-(4-methylthiazol-2-yl)-3-azabicyclo[3.1.0]hexan-3-yl)pyrazin-2-amine]	–	> 6.30	> 6.00	–	–
Cn1cnc2ccc(-c3ccc4nc(N5CC[C@@H]6[C@H](C5)[C@@]6(CN)c5ccccc5F)cnc4n3)cc21 [Example 436, ((1S,6R,7R)-7-(2-fluorophenyl)-3-(6-(1-methyl-1H-benzo[d]imidazol-6-yl)pyrido[2,3-b]pyrazin-2-yl)-3-azabicyclo[4.1.0]heptan-7-yl)methanamine]	> 6.00	> 6.30	–	–	–
Cc1csc(C2(CN)C3CCN(c4cnc5c(-c6ccc(S(=O)(=O)F)c7ccccc67)n[nH]c5n4)CC32)n1 (stereo not shown) [Example 443, 4-(6-(7-(aminomethyl)-7-(4-methylthiazol-2-yl)-3-azabicyclo[4.1.0]heptan-3-yl)-1H-pyrazolo[3,4-b]pyrazin-3-yl)naphthalene-1-sulfonyl fluoride]	–	–	–	> 6.00	5.52 to 6.30
Cc1csc([C@@]2(CN)[C@@H]3CN(c4cnc(Sc5ccn6cc(C(=O)N(C)C)nc6c5Cl)cn4)C[C@@H]32)n1 [Example 447, 7-((5-((1R,5S,6r)-6-(aminomethyl)-6-(4-methylthiazol-2-yl)-3-azabicyclo[3.1.0]hexan-3-yl)pyrazin-2-yl)thio)-8-chloro-N,N-dimethylimidazo[1,2-a]pyridine-2-carboxamide]	> 6.00	> 6.30	–	–	–
Cc1csc([C@@]2(CN)[C@@H]3CCN(c4cnc5c(-c6ccc(OS(=O)(=O)F)c7ncccc67)n[nH]c5n4)C[C@@H]32)n1 [Example 448, 5-(6-((1S,6R,7S)-7-(aminomethyl)-7-(4-methylthiazol-2-yl)-3-azabicyclo[4.1.0]heptan-3-yl)-1H-pyrazolo[3,4-b]pyrazin-3-yl)quinolin-8-yl sulfurofluoridate]	–	–	–	> 6.00	> 6.30
NC[C@]1(c2ccccc2F)[C@@H]2CCN(c3cnc4c(-c5ccc(OS(=O)(=O)F)c6ncccc56)n[nH]c4n3)C[C@@H]21 [Example 449, 5-(6-((1S,6R,7R)-7-(aminomethyl)-7-(2-fluorophenyl)-3-azabicyclo[4.1.0]heptan-3-yl)-1H-pyrazolo[3,4-b]pyrazin-3-yl)quinolin-8-yl sulfurofluoridate]	–	–	–	> 6.00	> 6.30
Cc1csc(C2(CN)C3CCN(c4cnc5c(-c6ccc(OS(=O)(=O)F)c(Cl)c6Cl)n[nH]c5n4)CC32)n1 (stereo not shown) [Example 450, 4-(6-(7-(aminomethyl)-7-(4-methylthiazol-2-yl)-3-azabicyclo[4.1.0]heptan-3-yl)-1H-pyrazolo[3,4-b]pyrazin-3-yl)-2,3-dichlorophenyl sulfurofluoridate]	–	–	–	> 6.00	> 6.30

Second part, led by results:

pIC50 [1, 3]	pIC50 [2, 4]	SMILES	pIC50 [1, 5]	pIC50 ([1]; Homo sapiens, KYSE-520, 2 h)	pIC50 [2, 6]
> 6.00	> 6.30	Cc1nccc(Sc2ncc(N3CC[C@@H]4[C@H](C3)[C@@]4(CN)c3cc(F)ccc3F)nc2N)c1F [Example 431, 6-((1S,6R,7R)-7-(aminomethyl)-7-(2,5-difluorophenyl)-3-azabicyclo[4.1.0]heptan-3-yl)-3-((3-fluoro-2-methylpyridin-4-yl)thio)pyrazin-2-amine]	–	–	–
> 6.00	> 6.30	Cc1csc([C@@]2(CN)[C@@H]3CN(c4cc(=O)n(-c5cccc(Cl)c5Cl)c(C)n4)C[C@@H]32)n1 [Example 433, 6-((1R,5S,6r)-6-(aminomethyl)-6-(4-methylthiazol-2-yl)-3-azabicyclo[3.1.0]hexan-3-yl)-3-(2,3-dichlorophenyl)-2-methylpyrimidin-4(3H)-one]	–	–	–
> 6.00	> 6.30	COc1cc(-c2ccc3nc(N4CC[C@@H]5[C@H](C4)[C@@]5(CN)c4ccccc4F)cnc3n2)cc2cccnc12 [Example 435, ((1S,6R,7R)-7-(2-fluorophenyl)-3-(6-(8-methoxyquinolin-6-yl)pyrido[2,3-b]pyrazin-2-yl)-3-azabicyclo[4.1.0]heptan-7-yl)methanamine]	–	–	–
5.30 to 6.00	> 6.30	Cc1csc([C@@]2(CN)[C@@H]3CN(c4cnc5c(-c6cccc(Cl)c6Cl)n[nH]c5n4)CC[C@@H]32)n1 [Example 437, ((1R,6S,7R)-3-(3-(2,3-dichlorophenyl)-1H-pyrazolo[3,4-b]pyrazin-6-yl)-7-(4-methylthiazol-2-yl)-3-azabicyclo[4.1.0]heptan-7-yl)methanamine]	–	–	–
> 6.00	> 6.30	NC[C@]1(c2ccccc2F)[C@@H]2CCN(c3cnc4c(-c5ccn6nccc6c5Cl)n[nH]c4n3)C[C@@H]21 [Example 438, ((1S,6R,7R)-3-(3-(4-chloropyrazolo[1,5-a]pyridin-5-yl)-1H-pyrazolo[3,4-b]pyrazin-6-yl)-7-(2-fluorophenyl)-3-azabicyclo[4.1.0]heptan-7-yl)methanamine]	–	–	–
> 6.00	> 6.30	Cc1csc([C@@]2(CN)[C@@H]3CCN(c4cnc5c(-c6ccn7nccc7c6Cl)n[nH]c5n4)C[C@@H]32)n1 [Example 439, ((1S,6R,7S)-3-(3-(4-chloropyrazolo[1,5-a]pyridin-5-yl)-1H-pyrazolo[3,4-b]pyrazin-6-yl)-7-(4-methylthiazol-2-yl)-3-azabicyclo[4.1.0]heptan-7-yl)methanamine]	–	–	–
> 6.00	> 6.30	Cc1csc([C@@]2(CN)[C@@H]3CCN(c4cnc5c(-c6ccn7nc(C)cc7c6Cl)n[nH]c5n4)C[C@@H]32)n1 [Example 440, ((1S,6R,7S)-3-(3-(4-chloro-2-methylpyrazolo[1,5-a]pyridin-5-yl)-1H-pyrazolo[3,4-b]pyrazin-6-yl)-7-(4-methylthiazol-2-yl)-3-azabicyclo[4.1.0]heptan-7-yl)methanamine]	–	–	–
> 6.00	> 6.30	Cc1csc(C2(CN)C3CCN(c4cnc5c(-c6ccc(Cl)c7ncccc67)n[nH]c5n4)CC32)n1 (stereo not shown) [Example 442, (3-(3-(8-chloroquinolin-5-yl)-1H-pyrazolo[3,4-b]pyrazin-6-yl)-7-(4-methylthiazol-2-yl)-3-azabicyclo[4.1.0]heptan-7-yl)methanamine]	–	–	–
> 6.00	> 6.30	Cc1csc([C@@]2(CN)[C@@H]3CCN(c4cnc5c(-c6ccc7nc(C)sc7c6Cl)n[nH]c5n4)C[C@@H]32)n1 [Example 444, ((1S,6R,7S)-3-(3-(7-chloro-2-methylbenzo[d]thiazol-6-yl)-1H-pyrazolo[3,4-b]pyrazin-6-yl)-7-(4-methylthiazol-2-yl)-3-azabicyclo[4.1.0]heptan-7-yl)methanamine]	–	–	–
> 6.00	> 6.30	Cc1csc([C@@]2(CN)[C@@H]3CCN(c4cnc5c(-c6ccc7nn(C)c(Cl)c7c6Cl)n[nH]c5n4)C[C@@H]32)n1 [Example 445, ((1S,6R,7S)-3-(3-(3,4-dichloro-2-methyl-2H-indazol-5-yl)-1H-pyrazolo[3,4-b]pyrazin-6-yl)-7-(4-methylthiazol-2-yl)-3-azabicyclo[4.1.0]heptan-7-yl)methanamine]	–	–	–
> 6.00	> 6.30	NCC1(c2nc(Cl)cs2)C2CCN(c3cnc4c(-c5ccc(F)c6ncccc56)n[nH]c4n3)CC21 (stereo not shown) [Example 446, (7-(4-chlorothiazol-2-yl)-3-(3-(8-fluoroquinolin-5-yl)-1H-pyrazolo[3,4-b]pyrazin-6-yl)-3-azabicyclo[4.1.0]heptan-7-yl)methanamine]	–	–	–
> 6.00	> 6.30	NC[C@]1(c2ccccc2F)[C@@H]2CCN(c3cnc4c(-c5ccnc(-n6cccn6)c5Cl)n[nH]c4n3)C[C@@H]21 [Example 451, ((1S,6R,7R)-3-(3-(3-chloro-2-(1H-pyrazol-1-yl)pyridin-4-yl)-1H-pyrazolo[3,4-b]pyrazin-6-yl)-7-(2-fluorophenyl)-3-azabicyclo[4.1.0]heptan-7-yl)methanamine]	–	–	–
> 6.00	> 6.30	NC[C@]1(c2ccccc2)[C@@H]2CN(c3cnc4c(-c5cccc(Cl)c5Cl)n[nH]c4n3)C[C@@H]21 [Example 452, ((1R,5S,6s)-3-(3-(2,3-dichlorophenyl)-1H-pyrazolo[3,4-b]pyrazin-6-yl)-6-phenyl-3-azabicyclo[3.1.0]hexan-6-yl)methanamine]	–	–	–
> 6.00	> 6.30	Cn1cc2c(Cl)c(-c3n[nH]c4nc(N5C[C@@H]6[C@H](C5)[C@@]6(CN)c5ccccc5)cnc34)ccc2n1 [Example 453, ((1R,5S,6s)-3-(3-(4-chloro-2-methyl-2H-indazol-5-yl)-1H-pyrazolo[3,4-b]pyrazin-6-yl)-6-phenyl-3-azabicyclo[3.1.0]hexan-6-yl)methanamine]	–	–	–
